Laboratory results as given in paper PMC4322620 (Frontiers in Pharmacology, 2015).
Where a SMILES comes first, the peptide text is derived from it. [ ]: non-standard residue; d: D form. The star is where a group is joined. X1 = CC(=O)N[C@@H]1[C@@H](O[C@@H]2O[C@H](CO)[C@H](O)[C@H](O)[C@H]2O)[C@@H](O)[C@@H](CO)O[C@@H]1*; X2 = CC12CC3CC(C)(C1)CC(N*)(C3)C2; pGlu = O=C1CC[C@@H](C(=O)O)N1

How the values were obtained:
[1] = biological target: NTS1 (HT-29 cells) (Homo sapiens, UniProt P30989); assay: cell-based
[2] = biological target: neurotensin receptors (HT-29 cells) (Homo sapiens, UniProt P30989); type: cell-based
[3] = biological target: cell-surface neurotensin receptors (HT-29 cells) (Homo sapiens, UniProt P30989); type: cell-based
[4] = in vitro; conditions: mouse, other tissue homogenate
[5] = in vitro; conditions: rat, serum
[6] = test system: motor impairment; conditions: mouse, in vivo

Chain of neurotensin receptors (HT-29 cells) (P30989 whole entry, looked up): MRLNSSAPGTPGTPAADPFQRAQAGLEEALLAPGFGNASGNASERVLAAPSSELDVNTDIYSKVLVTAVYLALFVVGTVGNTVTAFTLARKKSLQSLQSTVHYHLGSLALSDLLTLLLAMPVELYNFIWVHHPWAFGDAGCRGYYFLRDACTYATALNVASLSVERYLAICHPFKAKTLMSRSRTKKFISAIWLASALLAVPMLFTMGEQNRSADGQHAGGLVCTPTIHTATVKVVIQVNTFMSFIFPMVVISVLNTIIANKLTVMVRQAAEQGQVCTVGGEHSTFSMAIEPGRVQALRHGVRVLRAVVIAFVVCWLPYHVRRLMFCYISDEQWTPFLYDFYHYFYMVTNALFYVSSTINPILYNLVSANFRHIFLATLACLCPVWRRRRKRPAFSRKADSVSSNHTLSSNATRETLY
Chain of cell-surface neurotensin receptors (HT-29 cells) (P30989 whole entry, looked up): as above
Chain of NTS1 (HT-29 cells) (P30989 whole entry, looked up): as above

SMILES | EC50 [1] [nM] | DC50 [2] [nM] | DC50/EC50 [2] | levels of cell-surface neurotensin receptors after agonist exposure [3] | half-life [4] [h] | half-life [5] [h] | rotorod toxicity [6]
CC[C@H](C)[C@H](NC(=O)[C@H](Cc1ccc(O)cc1)NC(=O)[C@@H]1CCCN1C(=O)[C@H](CCCCN)NC(=O)[C@H](CCCCN)NC(=O)[C@@H](NC(=O)[C@H](C)NC(=O)[C@H](CC(N)=O)NC(=O)[C@H](CO)NC(=O)CNC(=O)CNC(=O)[C@H](CCC(=O)O)NC(=O)[C@H](CCC(=O)O)NC(=O)[C@H](CO)NC(=O)[C@@H]1CCC(=O)N1)[C@@H](C)O[C@H]1O[C@H](CO)[C@H](O)[C@H](O[C@@H]2O[C@H](CO)[C@H](O)[C@H](O)[C@H]2O)[C@H]1NC(C)=O)C(=O)N[C@@H](CC(C)C)C(=O)O [Contulakin-G] ([pGlu]SEEGGSNAT(X1)KKPYIL-OH) | 32.4 ± 14.5 | 444 ± 41 | 14 | significantly higher levels | > 2.67 | > 16 | –
CC[C@H](C)[C@H](NC(=O)[C@H](Cc1ccc(O)cc1)NC(=O)[C@@H]1CCCN1C(=O)[C@H](CCCCN)NC(=O)[C@H](CCCCN)NC(=O)[C@H](CCC(=O)NC12CC3CC(C)(CC(C)(C3)C1)C2)NC(=O)[C@H](CCCCN)NC(=O)[C@H](CC(N)=O)NC(=O)[C@H](CO)NC(=O)CNC(=O)CNC(=O)[C@H](CCC(=O)O)NC(=O)[C@H](CCC(=O)O)NC(=O)[C@H](CO)NC(=O)[C@@H]1CCC(=O)N1)C(=O)N[C@@H](CC(C)C)C(=O)O [memantine-Contulakin-G] ([pGlu]SEEGGSNKE(X2)KKPYIL-OH) | – | – | – | – | – | – | no rotorod toxicity
